This is an account of results in patent US8435987B2, “Pyrazolo-pyridinone and pyrazolo-pyrazinone compounds as P38 modulators and methods of use thereof” (Amgen Inc., priority 2007, dated 2013).

Assay [1] addresses recombinant human p38α (Homo sapiens, UniProt Q16539). Nature of the assay: Purified and activated recombinant human p38α HTRF assay. The class given is biochemical. The following applies: 1 nM p38α, 50 μM ATP, 100 nM GST-ATF2-Avitag, read-out: p3a IC550. The procedure: Purified and Activated Recombinant Human p38α Assay
• Kinase Reaction Buffer: Kinase reaction buffer for p38α HTRF assays consists of 50 mM Tris-pH 7.5, 5 mM MgCl2, 0.1 mg/mL BSA, 100 μM Na3VO4 and 0.5 mM DTT. • HTRF Detection Buffer: HTRF detection buffer contains 100 mM HEPES-pH 7.5, 100 mM NaCl, 0.1% BSA, 0.05% Tween-20, and 10 mM EDTA. • Serial Dilution of Compounds: Compounds were dissolved in 100% DMSO and serially diluted (3 fold, 10 point) in a polypropylene 96-well microtiter plate (drug plate). The final starting concentration of compounds in the p38a enzymatic assays was 1 μM. Columns 6 and 12 (HI controls and LO controls respectively) in the drug plate were reserved as controls and contained only DMSO. • Kinase Reaction: The p38α kinase reactions were carried out in a polypropylene 96-well black round bottom assay plate in total volume of 30 μL kinase reaction buffer. Appropriate concentration of purified and activated enzyme (recombinant human) was mixed with indicated concentration of ATP and 100 nM GST-ATF2-Avitag, in the presence or absence (HI control) of Compound. See table below for actual concentrations. In the absence of substrate, the background was measured as LO control. The reaction was allowed to incubate for 1 hour at RT. • Assay Reagent Concentrations: The final reagent concentrations were 1 nM p38α and 50 μM ATP. […] After 60 minutes incubation at room temperature, the assay plate was read in a Discovery Plate Reader. The wells were excited with coherent 320 nm light and the ratio of delayed ([…] post excitation) emissions at […] (native europium fluorescence) and 665 nm (europium fluorescence transferred to allophycocyanin—an index of substrate phosphorylation) was determined (Park et al, 1999). • Data Analysis: The proportion of substrate phosphorylated in the kinase reaction in the presence of compound compared with that phosphorylated in the presence of DMSO vehicle alone (HI control) was calculated using the formula: % control (POC)=(compound−average LO)/(average HI−average LO)*100. Data (consisting of POC and inhibitor concentration in μM) was fitted to a 4-parameter equation (y=A+((B−A)/(1+((x/C)AD))), where A is the minimum y (POC) value, B is the maximum y (POC), C is the x (compound concentration) at the point of inflection and D is the slope factor, using a Levenburg-Marquardt non-linear regression algorithm.
The inhibition constant (Ki) of the inhibitor was estimated from the IC50 (compound concentration at the point of inflection C) using the Cheng-Prussof equation: Ki=IC50/(1+S/Km), where S is the ATP substrate concentration, and Km is the Michaelis constant for ATP as determined experimentally. All results were expressed as the mean± the standard error of the mean. Data acquisition and non-linear regression algorithms were performed using Activity Base v5.2 and XL-fit software v4.1 respectively. All data was archived using Activity Base v5.2 software.
Background: In TR-FRET formats the signal depends on donor and acceptor labels being close together.

In assay [2] the test system is secreted IL-8 by whole blood activated with TNF-α. Nature of the assay: Inhibition of TNF-α induced IL-8 in 50% human whole blood. The class given is cell-based. Here is the method:
Inhibition of TNF-α Induced IL-8 in 50% Human Whole Blood
Test compounds were evaluated in vitro for the ability to inhibit the production of secreted IL-8 by whole blood activated with TNF-α. Fresh human whole blood was obtained from healthy, non-medicated volunteers in sodium heparin tubes.
Compound Dilution—Assay Procedure
Test compounds are serially diluted 1:3 in DMSO and then diluted 1:250 into R10 (RPMI 1640, 10% human serum AB, 1× pen/strep/glutamine) to the 4× working concentration to be used in the assay. 100 ul heparinized whole blood is plated into wells of 96 well flat bottom plates. 50 ul of either 4× compound or DMSO control (Final DMSO concentration is 0.1%) are added to the appropriate wells. Plates are incubated for 1 hour at 37 degrees Celsius. 50 ul of 4× TNF-α (4 nM TNF-α, for a final concentration of 1 nM) or control (media alone) is added to the appropriate wells (Total volume=200 ul). Plates are incubated overnight (16-18 hours). 100 ul of supernatant is collected and stored in 96-well round bottom polypropylene plates at −80 degrees Celsius or assayed immediately for IL-8.
Cytokines are measured on antibody (Ab) sandwich ECL based 96-well detection plates. 20 ul of supernatant are added to plate and plate is sealed and shaken at RT for 1 hour. 130 ul of detection Ab cocktail is added and plates are sealed and shaken for 1 hour in the dark at RT. Plates are read on MSD Sector HTS instrument. Data are analyzed and IC50 values generated using Activity Base and Xl-fit programs.

Assay [3] has as its system TNF-α secretion by LPS-treated THP1 cells. Nature of the assay: Lipopolysaccharide-activated THP1 cell TNF production assay. The note with it: Homo sapiens, THP-1, 3 hours, read-out: IC50 in the THP-1 cellular TNF production assay. The class given is cell-based. Here is the method:
Lipopolysaccharide-Activated THP1 Cell TNF Production Assay
THP1 cells were resuspended in fresh THP1 media (RPMI 1640, 10% heat-inactivated FBS, 1×PGS, 1×NEAA, plus 30 μM βME) at a concentration of 1.5×10^6 cells per mL. One hundred microliters of cells per well were plated in a polystyrene 96-well tissue culture plate. 1.5 micrograms per mL of bacterial LPS was prepared in THP1 media and transferred to the first 11 columns of a 96-well polypropylene plate. Column 12 contained only THP1 media for the LO control. Compounds were dissolved in 100% DMSO and serially diluted 3 fold in a polypropylene 96-well microtiter plate (drug plate). Columns 6 and 12 were reserved as controls (HI controls and LO controls respectively) and contained only DMSO. 10 μL of LPS followed by one microliter of inhibitor compound from the drug plate was transferred to the cell plate. The treated cells were induced to synthesize and secrete TNF-α in a 37° C. humidified incubator with 5% CO2 for 3 hours. Fifty microliters of conditioned media was transferred to a 96-well MULTI-ARRAY™ 96-well small spot plate—custom coated with MAB610 containing 100 μL of 2× Read Buffer P supplemented with 0.34 nM AF210NA polyclonal Ab labeled with ruthenium (MSD-Sulfo-TAG™—NHS ester). After an overnight incubation at room temperature with shaking, the reaction was read on the Sector Imager™ 6000. […] The amount of secreted TNF-α in the presence of AMG compounds compared with that in the presence of DMSO vehicle alone (HI control) was calculated using the formula: % control (POC)=(cpd−average LO)/(average HI−averageLO)*100. Data (consisting of POC and inhibitor concentration in μM) was fitted to a 4-parameter equation (y=A+((B−A)/(1+((x/C)^D))), where A is the minimum y (POC) value, B is the maximum y (POC), C is the x (cpd concentration) at the point of inflection and D is the slope factor) using a Levenburg-Marquardt non-linear regression algorithm.

Where [4] appears, read: 50% human whole blood, TNF-α (1 nM final) induced IL-8, 16-18 hours, read-out: WB TNF/IL8 IC50.
The mark [5] stands for this setting: Homo sapiens, read-out: IC50, TNF-α induced IL-8 in 50% human whole blood.

Where two headings read alike, the source gives them in different places.

recombinant human p38α, sequence (Q16539 whole entry): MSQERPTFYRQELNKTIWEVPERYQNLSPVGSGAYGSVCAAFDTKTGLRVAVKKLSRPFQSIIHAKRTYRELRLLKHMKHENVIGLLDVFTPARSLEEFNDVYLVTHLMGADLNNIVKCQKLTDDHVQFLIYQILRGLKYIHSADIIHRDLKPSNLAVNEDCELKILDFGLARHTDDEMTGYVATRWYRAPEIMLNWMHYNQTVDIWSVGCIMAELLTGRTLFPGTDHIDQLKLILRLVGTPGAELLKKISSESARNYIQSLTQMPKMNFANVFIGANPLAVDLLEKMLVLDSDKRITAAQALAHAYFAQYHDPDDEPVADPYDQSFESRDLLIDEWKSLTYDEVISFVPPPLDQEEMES

As to `CNc1noc2c(-c3cc4cnn(-c5c(F)cccc5F)c4n(C)c3=O)c(C)ccc12` [Example 5, 1-(2,6-difluorophenyl)-7-methyl-5-(6-methyl-3-(methylamino)-1,2-benzisoxazol-7-yl)-1,7-dihydro-6H-pyrazolo[3,4-b]pyridin-6-one], the IC50 was 6.7 nM in assay [1], 2.7 nM in assay [2] (setting [4]), no more than 100 nM in assay [2] (setting [5]) and no more than 100 nM in assay [3].

For the compound `Cc1ccc2c(NC3CC3)noc2c1-c1cc2cnn(-c3c(F)cccc3F)c2n(C)c1=O` [Example 1, 5-(3-(cyclopropylamino)-6-methylbenzo[d]isoxazol-7-yl)-1-(2,6-difluorophenyl)-7-methyl-1H-pyrazolo[3,4-b]pyridin-6(7H)-one], the IC50 in assay [1] was 8.1 nM; in assay [2] (setting [4]), 1.1 nM; in assay [2] (setting [5]) it was no more than 100 nM; in assay [3], no more than 100 nM.
